Earlier results, collected in US20070142399A1, “Dual function drugs and uses thereof” (Psychiatric Genomics, Inc., priority 2003, published 2007).

What was measured:
[1] = target: D1 receptor (Homo sapiens, UniProt P21728)
[2] = target: D2 receptor (Homo sapiens, UniProt P14416)
Sequence of D2 receptor (P14416 whole entry): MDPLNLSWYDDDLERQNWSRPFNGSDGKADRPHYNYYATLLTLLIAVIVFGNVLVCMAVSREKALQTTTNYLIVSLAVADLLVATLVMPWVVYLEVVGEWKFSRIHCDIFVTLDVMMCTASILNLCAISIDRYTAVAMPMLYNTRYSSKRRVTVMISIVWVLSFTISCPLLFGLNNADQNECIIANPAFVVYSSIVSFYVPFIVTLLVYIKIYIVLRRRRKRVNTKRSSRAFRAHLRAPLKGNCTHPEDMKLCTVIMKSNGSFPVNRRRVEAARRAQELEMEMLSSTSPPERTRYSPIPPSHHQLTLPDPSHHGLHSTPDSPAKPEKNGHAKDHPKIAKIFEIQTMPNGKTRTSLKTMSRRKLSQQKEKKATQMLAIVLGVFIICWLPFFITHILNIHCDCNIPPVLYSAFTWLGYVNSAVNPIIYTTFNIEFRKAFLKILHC

Sequence of D1 receptor (P21728 whole entry): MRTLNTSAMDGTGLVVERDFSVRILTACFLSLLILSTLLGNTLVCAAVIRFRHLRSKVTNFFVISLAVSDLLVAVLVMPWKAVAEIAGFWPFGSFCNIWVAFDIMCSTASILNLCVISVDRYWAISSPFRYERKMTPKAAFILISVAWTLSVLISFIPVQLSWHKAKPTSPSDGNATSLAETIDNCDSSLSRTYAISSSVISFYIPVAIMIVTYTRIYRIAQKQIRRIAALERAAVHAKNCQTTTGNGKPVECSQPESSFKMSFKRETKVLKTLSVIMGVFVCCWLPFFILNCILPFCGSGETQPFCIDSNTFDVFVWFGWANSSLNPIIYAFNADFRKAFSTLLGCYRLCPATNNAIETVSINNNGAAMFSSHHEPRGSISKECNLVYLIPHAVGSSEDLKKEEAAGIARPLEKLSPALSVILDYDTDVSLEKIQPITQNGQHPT

With `Oc1cc2c(cc1O)CC(NCc1ccccc1)CC2` (centres unmarked) [compound 80] as the compound, how does the “potency at the D1 receptor as an agonist” value [1] read?
The value was “not potent enough”.

What about the D2 agonist activity [2] of the same compound?
Its D2 agonist activity is “residual partial D2 agonist activity”.
